Laboratory results taken from patent publication US8008299B2, “Urotensin II receptor antagonists” (Janssen Pharmaceutica, N.V., priority 2007, dated 2011).

Assays:
[1] = target: T1, rU-II (Rattus norvegicus, UniProt P49684); settings: cited from earlier work
T1 sequence (P49684 1-386): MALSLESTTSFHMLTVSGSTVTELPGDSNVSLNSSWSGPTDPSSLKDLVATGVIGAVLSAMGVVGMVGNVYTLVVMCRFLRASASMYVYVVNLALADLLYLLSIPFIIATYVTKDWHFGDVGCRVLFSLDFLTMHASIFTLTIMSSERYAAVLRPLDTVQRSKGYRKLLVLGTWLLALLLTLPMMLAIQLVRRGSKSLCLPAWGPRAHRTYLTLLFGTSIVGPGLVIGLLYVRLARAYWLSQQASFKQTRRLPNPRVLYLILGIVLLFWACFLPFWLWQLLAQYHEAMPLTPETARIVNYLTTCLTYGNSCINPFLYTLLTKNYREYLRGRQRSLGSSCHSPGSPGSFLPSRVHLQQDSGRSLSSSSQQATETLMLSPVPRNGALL

[2] = target: T2, rat GPR14 (U-II receptor) (Rattus norvegicus, UniProt P49684); settings: agonist activity of the cyclic peptide used as agonist; read-out: FLIPR EC50; cited from earlier work
T2 construct: expressed in transfected cells
T2 sequence (P49684 1-386): T1 sequence (P49684 1-386)

[3] = target: T2, rat GPR14 (U-II receptor); assay: Rat UII Calcium Mobilization FLIPR Assay; type: cell-based; settings: CHO cells transfected with rat GPR14; antagonist activity after 5 min incubation vs agonist (Ac)-CFWK(2-NaI)C-NH2 at 1 nM
Procedure, shortened: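 CHO cells stably expressing rat U-II receptor, seeded 24 h before assay, were loaded with FLIPR calcium dye in HBSS/20 mM HEPES/0.1% BSA/2.5 mM probenecid, pH 7.4, for 1 h at 37° C. Calcium mobilization then read by FLIPR at 23° C.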

[4] = target: T3, UT receptors in HSMM (Human Skeletal Muscle Myoblasts) (Homo sapiens, UniProt Q9UKP6); assay: Human Radioligand Binding Assay ((^125I)-U-II binding to intact HSMM)
T3 sequence (Q9UKP6 1-389): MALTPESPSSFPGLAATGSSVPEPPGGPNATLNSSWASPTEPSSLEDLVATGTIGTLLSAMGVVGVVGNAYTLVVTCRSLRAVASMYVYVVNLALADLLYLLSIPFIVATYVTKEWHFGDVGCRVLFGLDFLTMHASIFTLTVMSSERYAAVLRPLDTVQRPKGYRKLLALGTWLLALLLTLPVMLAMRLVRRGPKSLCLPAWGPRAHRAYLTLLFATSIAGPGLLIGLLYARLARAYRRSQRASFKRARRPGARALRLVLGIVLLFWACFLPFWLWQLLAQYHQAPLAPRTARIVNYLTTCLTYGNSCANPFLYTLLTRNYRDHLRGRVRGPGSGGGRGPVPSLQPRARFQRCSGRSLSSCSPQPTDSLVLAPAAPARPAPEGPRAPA

[5] = target: T4, Human UII (U-II receptor) in 6D9 human rhabdomyosarcoma cells (Homo sapiens, UniProt Q9UKP6); assay: Human UII Calcium Mobilization Assay; type: cell-based; settings: 6D9 human rhabdomyosarcoma cells, FLIPR TETRA, average; read-out: Human UII Ca+ Mobilization Average IC50
T4 construct: 6D9: isolated by dilution subcloning of RMS13 cells, ATCC® Number: CRL-2061; host or cells: 6D9 human rhabdomyosarcoma cells (subclone of RMS13)
T4 sequence (Q9UKP6 1-389): T3 sequence (Q9UKP6 1-389)

Row | Compound | IC50 [3] [nM] | Ki [4] [nM] | IC50 [5] [nM] | Ki [1] [nM] | EC50 [2] [nM]
1 | (Ac)-CFWK(2-NaI)C—NH2 | – | – | – | 0.12 ± 0.05 | 0.54 ± 0.2
2 | CCN1CCN(c2cccc3c2CN([C@H](CCCN(C)S(=O)(=O)c2cn(C)c(C)n2)c2ccc(OC)c(OC)c2)C3=O)CC1 [Cpd 39, 1,2-dimethyl-1H-imidazole-4-sulfonic acid {(4R)-4-(3,4-dimethoxy-phenyl)-4-[4-(4-ethyl-piperazin-1-yl)-1-oxo-1,3-dihydro-isoindol-2-yl]-butyl}-methyl-amide] | 138 | 162 | 988 | – | –
3 | CCN1CCN(c2cccc3c2CN(C(c2cccc(NCc4ccccc4)c2)c2ccc(OC)c(OC)c2)C3=O)CC1 (centres unmarked) [Cpd 19, 2-[(3-benzylamino-phenyl)-(3,4-dimethoxy-phenyl)-methyl]-4-(4-ethyl-piperazin-1-yl)-2,3-dihydro-isoindol-1-one] | 138 | > 300 | 2380 | – | –
4 | CCN1CCN(c2cccc3c2CN([C@H](CCCNc2ccccn2)c2ccc(OC)c(OC)c2)C3=O)CC1 [Cpd 92, 2-[(1R)-1-(3,4-dimethoxy-phenyl)-4-(pyridin-2-ylamino)-butyl]-4-(4-ethyl-piperazin-1-yl)-2,3-dihydro-isoindol-1-one] | 74 | 60 | 911 | – | –
5 | CCN1CCN(c2cccc3c2CN(C(CC2CCN(Cc4ccccc4)CC2)c2ccc(OC)c(OC)c2)C3=O)CC1 (centres unmarked) [Cpd 13, 2-[2-(1-benzyl-piperidin-4-yl)-1-(3,4-dimethoxy-phenyl)-ethyl]-4-(4-ethyl-piperazin-1-yl)-2,3-dihydro-isoindol-1-one] | 167 | > 300 | 1980 | – | –
6 | CCN1CCN(c2cccc3c2CN([C@H](CCCNc2ncccn2)c2ccc(OC)c(OC)c2)C3=O)CC1 [Cpd 48, 2-[(1R)-1-(3,4-dimethoxy-phenyl)-4-(pyrimidin-2-ylamino)-butyl]-4-(4-ethyl-piperazin-1-yl)-2,3-dihydro-isoindol-1-one] | 61 | 48 | 496 | – | –
7 | CC[N+]1(C)CCN(c2cccc3c2CN([C@H](CCCN(Cc2ccccc2)Cc2ccccc2)c2ccc(OC)c(OC)c2)C3=O)CC1 [Cpd 38, 4-{2-[(1R)-4-dibenzylamino-1-(3,4-dimethoxy-phenyl)-butyl]-1-oxo-2,3-dihydro-1H-isoindol-4-yl}-1-ethyl-1-methyl-piperazin-1-ium] | 185 | > 300 | 2850 | – | –
8 | CCN1CCN(c2cccc3c2CN([C@H](CCCn2ccnc2C)c2ccc(OC)c(OC)c2)C3=O)CC1 [Cpd 103, 2-[(1R)-1-(3,4-dimethoxy-phenyl)-4-(2-methyl-imidazol-1-yl)-butyl]-4-(4-ethyl-piperazin-1-yl)-2,3-dihydro-isoindol-1-one] | 141 | 158 | 1400 | – | –

Second part, led by results:

Row | IC50 [3] [nM] | Ki [4] [nM] | IC50 [5] [nM] | Compound | Ki [1] [nM] | EC50 [2] [nM]
9 | 14 | 50 | 448 | COc1ccc([C@@H](CCCOc2ccccc2)N2Cc3c(cccc3N3CCNCC3)C2=O)cc1OC [Cpd 37, 2-[(1R)-1-(3,4-dimethoxy-phenyl)-4-phenoxy-butyl]-4-piperazin-1-yl-2,3-dihydro-isoindol-1-one] | – | –
10 | 11 | 135 | 602 | CCN1CCN(c2cccc3c2CN([C@H](CCCSc2cccc[n+]2[O-])c2ccc(OC)c(OC)c2)C3=O)CC1 [Cpd 31, {(4R)-4-(3,4-dimethoxy-phenyl)-4-[4-(4-ethyl-piperazin-1-yl)-1-oxo-1,3-dihydro-isoindol-2-yl]-butylsulfanyl}-pyridine 1-oxide] | – | –
11 | 5 | 26 | 47 | CCN1CCN(c2cccc3c2CN([C@H](CCCNCc2ccccc2)c2ccc(OC)c(OC)c2)C3=O)CC1 [Cpd 77, 2-[(1R)-4-benzylamino-1-(3,4-dimethoxy-phenyl)-butyl]-4-(4-ethyl-piperazin-1-yl)-2,3-dihydro-isoindol-1-one] | – | –
12 | 3 | 19 | 106 | CCN1CCN(c2cccc3c2CN([C@H](CCCSc2nc(C)cc(C)n2)c2ccc(OC)c(OC)c2)C3=O)CC1 [Cpd 27, 2-[(1R)-1-(3,4-dimethoxy-phenyl)-4-(4,6-dimethyl-pyrimidin-2-ylsulfanyl)-butyl]-4-(4-ethyl-piperazin-1-yl)-2,3-dihydro-isoindol-1-one] | – | –
13 | 57 | 172 | 1590 | CCN1CCN(c2cccc3c2CN([C@H](CCCn2ncnn2)c2ccc(OC)c(OC)c2)C3=O)CC1 [Cpd 15, 2-[(1R)-1-(3,4-dimethoxy-phenyl)-4-tetrazol-2-yl-butyl]-4-(4-ethyl-piperazin-1-yl)-2,3-dihydro-isoindol-1-one] | – | –
14 | 8 | 120 | 536 | COc1ccc([C@@H](CCCNc2nccc(C(F)(F)F)n2)N2Cc3c(cccc3N3CCNCC3)C2=O)cc1OC [Cpd 6, 2-[(1R)-1-(3,4-dimethoxy-phenyl)-4-(4-trifluoromethyl-pyrimidin-2-ylamino)-butyl]-4-piperazin-1-yl-2,3-dihydro-isoindol-1-one] | – | –
15 | 9 | 19 | 659 | CCN1CCN(c2cccc3c2CN(C(CC2CCN(S(=O)(=O)c4cccs4)CC2)c2ccc(OC)c(OC)c2)C3=O)CC1 (centres unmarked) [Cpd 18, 2-{1-(3,4-dimethoxy-phenyl)-2-[1-(thiophene-2-sulfonyl)-piperidin-4-yl]-ethyl}-4-(4-ethyl-piperazin-1-yl)-2,3-dihydro-isoindol-1-one] | – | –
16 | 4 | 43 | 74 | CCN1CCN(c2cccc3c2CN([C@H](CCCN(C)Cc2ccco2)c2ccc(OC)c(OC)c2)C3=O)CC1 [Cpd 94, 2-[(1R)-1-(3,4-dimethoxy-phenyl)-4-(furan-2-ylmethyl-methyl-amino)-butyl]-4-(4-ethyl-piperazin-1-yl)-2,3-dihydro-isoindol-1-one] | – | –
17 | 19 | 122 | 1150 | COc1ccc([C@@H](CCCSc2ccccc2)N2Cc3c(cccc3N3CCNCC3)C2=O)cc1OC [Cpd 36, 2-[(1R)-1-(3,4-dimethoxy-phenyl)-4-phenylsulfanyl-butyl]-4-piperazin-1-yl-2,3-dihydro-isoindol-1-one] | – | –
